The test system of one series is hKV1.1. The format is cell-based, human. Particulars: CHO cells. The text has this:
(§1) We, therefore, aimed at testing the pharmacological activity of sCm39 on a battery of various potassium and sodium ion channels. Among the tested channels were six members of human voltage-gated K^+ (hKV) channels from Shaker family, hKV1.1-hKV1.6 (Figure 3A–F) and three members of Ca^2+-activated potassium channel; hKCa2.2 (SK2, Figure 3I), the small-conductance Ca^2+-activated channel; hKCa3.1 (IKCa1, SK4. Figure 3J), the intermediate-conductance Ca^2+-activated channel expressed in T lymphocytes; and mKCa1.1 (BK, Slo1, MaxiK, Figure 3H), the large-conductance voltage- and Ca^2+-activated channel of mice. In addition, we also screened the effect of Cm39 on hKV11.1 (hERG1, Figure 3G), a voltage-gated cardiac K^+ channel, and two human voltage-gated sodium (hNaV) channels, hNaV1.4 (Figure 3K) and hNaV1.5 (Figure 3L), expressed in skeletal and cardiac muscles, respectively. These ion channels were heterologously expressed in the CHO or HEK cell lines except for KV1.3. Human peripheral T lymphocytes. They were stimulated with Phytohemagglutinin A (PHA) to increase the KV1.3 channel expression, and Ca^2+-free intracellular solution was used to avoid KCa3.1 channel activation. Appropriate depolarization protocols were used to record ionic currents in voltage-clamped cells (see Figure 3 insets and Material and Methods for details). Freshly dissolved sCm39 in extracellular solution was applied at 1 µM concentration on the cell using a custom-built micro-perfusion system at ~200 µL/min flow rate.
Chinese hamster ovary (CHO) cells (gift from Yosef Yarden, Weizmann Institute of Science, Rehovot, Israel) were maintained by culturing in Dulbecco’s modified Eagle medium (DMEM, Gibco) supplemented with 2 mM L-glutamine, 10% FBS, 100 µg/mL streptomycin and 100 U/mL penicillin-g (Sigma-Aldrich) at a density of 0. 5−1×10^6 cells per mL in a humidified incubator at 37 °C and 5% CO2. Cells were passaged 3 times in a week following a 2–5 min incubation in 0.05% trypsin-EDTA solution at 37 °C. Cultures were used up to passage number 20. PCR-based tests were routinely used to detect mycoplasma infection, only mycoplasma-free cultures were used for experiments.
Those plasmids which lack a fluorescent tag were co-transfected with a plasmid encoding GFP. Transfections were performed at a GFP:channel DNA molar ratio of 1:10 using the Lipofectamine 2000 kit (Invitrogen) according to the manufacturer’s protocol. […] Generally, currents were recorded 24 to 48 h post transfection.
For the measurement of KV1.x, mKCa1.1 and NaV1.x currents the extracellular solution was composed of (in mM) 145 NaCl, 5 KCl, 2.5 CaCl2, 1 MgCl2, 10 HEPES and 5.5 glucose, pH 7.35. In the HK-150 and Na^+-free bath solution bath all Na^+ was substituted by K^+ or Choline-Cl, respectively, other ingredients remained unchanged. In the various TEA^+-containing solutions, Na^+ was substituted by tetraethylammonium-Cl in equimolar concentration (Figure 3). The bath solution for KCa2.2 and KCa3.1 consisted of (in mM) 145 L-Aspartic Na^+ salt, 5 KCl, 2.5 CaCl2, 1 MgCl2, 5.5 glucose and 10 HEPES, pH 7.4 and for KV11.1 (in mM) 140 Choline-Cl, 5 KCl, 2 MgCl2, 2 CaCl2, 10 HEPES, 20 glucose and 0.1 CdCl2, pH 7.35. The osmolarity of bath solutions was ranging between 302 to 308 mOsm/L. A total of 0.1 mg/mL bovine serum albumin (BSA, Sigma-Aldrich, Budapest, Hungary) was added to all the bath solutions before the patch-clamp assay to avoid toxin adsorption to the plastic surfaces of the perfusion system. Internal or pipette solution for recording KV1.x and mKCa1.1 currents consisted of (in mM) 140 KF, 2 MgCl2, 1 CaCl2, 11 EGTA and 10 HEPES, pH 7.22.

In the next series the test system is hKV11.1. Put plainly: Whole-cell patch-clamp, block of KV11.1 (hERG1) current. The series is classed as cell-based, human. To be noted: HEK 293 cells.
Excerpt: as §1, with “They were stimulated with Phytohemagglutinin A (PHA) to increase the KV1.3 channel expression, and Ca^2+-free intracellular solution was used to avoid KCa3.1 channel activation. Appropriate depolarization protocols were used to record ionic currents in voltage-clamped cells (see Figure 3 insets and Material and Methods for details). Freshly dissolved sCm39 in extracellular solution was applied at 1 µM concentration on the cell using a custom-built micro-perfusion system at ~200 µL/min flow rate.” left out
(§2) Whole-cell currents were recorded in voltage-clamped cells following standard protocols by using a Multiclamp 700B amplifier connected to a computer with Axon Digidata1440 digitizer and for data acquisition, Clampex 10.7 software was used (Molecular Devices). […]

Another series has as its system mKCa1.1. The format is cell-based, mice. To be noted: HEK 293 cells.
Excerpt: as §1, with “rate. […]” for “rate.”
as §2

“Also recorded” adds a separate entry of the source.

In the case of `CC[C@H](C)[C@@H]1NC(=O)[C@H](C)NC(=O)[C@H](C)NC(=O)[C@H](CCCCN)NC(=O)[C@@H]2CSSC[C@@H](C(=O)N[C@@H](Cc3ccc(O)cc3)C(=O)N[C@@H](Cc3ccc(O)cc3)C(=O)O)NC(=O)[C@H](CCCCN)NC(=O)[C@@H]3CSSC[C@H](NC(=O)[C@H](CCC(=O)O)NC(=O)[C@H](CO)NC(=O)[C@H](CO)NC(=O)[C@H](CO)NC(=O)[C@H](CCCCN)NC(=O)[C@@H](NC(=O)[C@H](CCCCN)NC(=O)[C@H](Cc4c[nH]cn4)NC(=O)[C@H](CC(N)=O)NC(=O)[C@@H](NC(=O)[C@H](Cc4ccccc4)NC(=O)[C@@H](N)[C@@H](C)O)[C@@H](C)CC)CSSC[C@H](NC(=O)[C@H](CCCCN)NC(=O)CNC(=O)[C@H](CO)NC(=O)[C@H](C)NC(=O)[C@H](CCCNC(=N)N)NC(=O)CNC1=O)C(=O)N[C@@H]([C@@H](C)CC)C(=O)N[C@@H](CC(N)=O)C(=O)N[C@@H](CO)C(=O)N[C@@H]([C@@H](C)O)C(=O)N3)C(=O)N[C@@H](CC(C)C)C(=O)N1CCC[C@H]1C(=O)N[C@@H](C)C(=O)N2` [Cm39], the “inhibition (in words)” value in the series on hKV1.1 (1 μM), with hKV11.1 (1 μM) and with mKCa1.1 (1 μM) was “does not inhibit; also recorded: did not show any effect” throughout. For the same molecule, the decrease in current is recorded as under 3% in the series with hKV1.1 (1 µM, 3−5 min, n = 3−5); under 3% in the series on hKV11.1 (1 µM, 3−5 min, n = 3−5); under 3% in the series with mKCa1.1 (1 µM, 3−5 min, n = 3−5).
